# Measurements published in patent US5567805A, “The cellular receptor for the CS3 peptide of human immunodeficiency virus” (priority 1994, dated 1996).
# How the values were obtained:
# [1] = tested on: CS3 binding domain; test: CS3 binding on RH9 cells stimulated with anti-CD3 or TPA; format: cell-based, human
# Protocol: (§1) FIG. 11. Cultures of RH9 cells were incubated with 10 ng/ml PMA (TPA) or 10 μg/ml antibody to the CD3 cell surface antigen or in medium alone. Comparisons are presented for each day of analysis for expression of CD4 (left panel) or CS3 binding (right panel). 0.50% of RH9 cells bound CS3-HSA-FITC. Relative to control cultures treatment with anti-CD3 increased CS3 domain expressing cells by 71% at 48 hours and 56% at 72 hours, while TPA increased CS3-binding by 32% at 72 hours. CS3-HSA-FITC fluorescence intensity, reflecting the number of receptors per cell, increased while CD4 expression decreased in intensity and number of positive cells (8% at 24 hours).
# [2] = tested on: CD4; test: CD4 expression on RH9 cells stimulated with TPA; format: cell-based, human
# Protocol: as §1
smiles,measurement,setting,value
"CCCCCCCCCCCCCC(=O)O[C@@H]1[C@@H](C)[C@@]2(O)[C@@H](C=C(CO)C[C@]3(O)C(=O)C(C)=C[C@@H]23)[C@@H]2C(C)(C)[C@]12OC(C)=O [TPA, tetraphorbol 13-myristyl acetate]",CS3 binding / receptor density after stimulation,[1],CS3 binding was increased
same,increase in CS3 domain expressing cells / CS3-binding relative to control cultures,[1]; 72 hours,32%
same,CD4 expression after treatment,[2],lost
